This note sets out measurements from PubChem BioAssay (NCI).

Among the test systems are RXF 393 renal; KM12 colon; NCI-H460 lung; SK-MEL-2 melanoma; HCC-2998 colon; A498 renal; UACC-62 melanoma; M14 melanoma; OVCAR-4 ovarian; SW-620 colon.
Common to all, as to assay: NCI tumour cell line growth inhibition, 48 h

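96-well plates; 48 h exposure; 5 concentrations. Endpoints by linear interpolation between flanking doses. Not reached: highest tested concentration assigned. The concentration for 50% growth inhibition is given as GI50. TGI is the concentration that stops growth completely.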 Where only a bound is given, the exact number is not on record here.

Regarding `CC(=O)[CH-]C(=O)c1ccccc1.CC(=O)[CH-]C(=O)c1ccccc1.CC(C)CCCC(C)[C@H]1CCC2[C@@H]3CCC4C[C@@H]([O-])CC[C@]4(C)C3CC[C@@]21C.CC(C)CCCC(C)[C@H]1CCC2[C@@H]3CCC4C[C@@H]([O-])CC[C@]4(C)C3CC[C@@]21C.Cl.[Ti+4]` (stereo partly specified), the GI50 with RXF 393 renal, in the assay on KM12 colon, in the assay on NCI-H460 lung, in the assay with SK-MEL-2 melanoma, in the assay on HCC-2998 colon and with A498 renal was > 25 µM in each case. Besides, the GI50 with UACC-62 melanoma, with M14 melanoma, in the assay on OVCAR-4 ovarian and in the assay on SW-620 colon was > 25 µM in each case. The TGI in the assay with RXF 393 renal, with KM12 colon, in the assay on NCI-H460 lung, with SK-MEL-2 melanoma, with HCC-2998 colon and with A498 renal was > 25 µM in each case. Further, the TGI in the assay with UACC-62 melanoma, in the assay with M14 melanoma, in the assay with OVCAR-4 ovarian and in the assay on SW-620 colon was > 25 µM throughout.
`Nc1nc(N)c2ncn(Cc3c(Cl)cccc3Cl)c2n1`: the TGI in the assay with RXF 393 renal, with KM12 colon, in the assay with SK-MEL-2 melanoma, in the assay with HCC-2998 colon, in the assay with A498 renal and with UACC-62 melanoma was > 100 µM each time. Moreover, the TGI in the assay on M14 melanoma, with OVCAR-4 ovarian and with SW-620 colon was > 100 µM in each case.
Turning to `Cc1cc2cc(Oc3ccnc(Nc4cccc(CS(=O)(=O)NCCN(C)C)c4)n3)ccc2[nH]1`, the GI50 with RXF 393 renal is 3.48 µM; in the assay on KM12 colon it was 1.29 µM; with NCI-H460 lung, 4.74 µM; in the assay on SK-MEL-2 melanoma, 11.5 µM; with HCC-2998 colon it was 11.6 µM; in the assay on A498 renal, 1.04 µM. In addition, the GI50 in the assay on UACC-62 melanoma was 3.85 µM; in the assay on OVCAR-4 ovarian, 9.11 µM; in the assay on SW-620 colon, 7.99 µM. Also, the TGI in the assay with RXF 393 renal came to 15.8 µM; in the assay with KM12 colon it was 13.3 µM; with NCI-H460 lung, 18.8 µM; with SK-MEL-2 melanoma, 25.7 µM; in the assay on HCC-2998 colon, 25.2 µM; in the assay with A498 renal, 4.19 µM. The TGI with UACC-62 melanoma came out at 14.4 µM; in the assay with OVCAR-4 ovarian, 22.3 µM; in the assay with SW-620 colon, 23.5 µM.
As to `N#C/C(=C/c1cccs1)c1cccs1`, the GI50 was 38 µM with RXF 393 renal; > 100 µM in the assay on KM12 colon; > 100 µM in the assay with NCI-H460 lung; > 100 µM in the assay on SK-MEL-2 melanoma; > 100 µM in the assay with HCC-2998 colon; > 100 µM in the assay with A498 renal. The GI50 in the assay with UACC-62 melanoma, in the assay with OVCAR-4 ovarian and in the assay on SW-620 colon was > 100 µM each time. The TGI in the assay on RXF 393 renal, in the assay with KM12 colon, with NCI-H460 lung, in the assay with SK-MEL-2 melanoma, in the assay with HCC-2998 colon and in the assay with A498 renal was > 100 µM each time. Also, the TGI in the assay with UACC-62 melanoma, in the assay on OVCAR-4 ovarian and in the assay with SW-620 colon was > 100 µM in each case.
Consider `CC(C)NCCCNC1=C(Cl)C(=O)c2ccccc2C1=O`, for which the GI50 in the assay on RXF 393 renal was 14.5 µM; in the assay with KM12 colon, 9.59 µM; with NCI-H460 lung, 3.96 µM; in the assay with SK-MEL-2 melanoma it was 13.5 µM; in the assay with HCC-2998 colon, 2.14 µM; in the assay with A498 renal it was 12.2 µM. Further, the GI50 with UACC-62 melanoma was 2.1 µM; with M14 melanoma, 1.86 µM; in the assay on SW-620 colon it was 1.74 µM. Moreover, the TGI came out at 27.8 µM in the assay with RXF 393 renal; 22.3 µM in the assay with KM12 colon; 16.4 µM in the assay on NCI-H460 lung; 30 µM in the assay on SK-MEL-2 melanoma; 4.49 µM with HCC-2998 colon; 25.1 µM in the assay with A498 renal. The TGI came out at 4.91 µM in the assay on UACC-62 melanoma, 3.49 µM in the assay with M14 melanoma and 3.37 µM in the assay on SW-620 colon.
Turning to `O=C(O)C1(C(=O)O)CCN(S(=O)(=O)c2ccccc2)CC1`, the TGI in the assay with RXF 393 renal, in the assay with KM12 colon, in the assay with NCI-H460 lung, with SK-MEL-2 melanoma, in the assay with A498 renal and with UACC-62 melanoma was > 100 µM throughout. Moreover, the TGI in the assay on M14 melanoma, in the assay on OVCAR-4 ovarian and with SW-620 colon was > 100 µM each time.
Turning to `CO/N=C(\COc1ccc2c(=O)cc(-c3ccccc3)oc2c1)c1ccc(OC)cc1`, the GI50 is > 100 µM in the assay on RXF 393 renal; 81.4 µM in the assay on KM12 colon; > 100 µM in the assay with SK-MEL-2 melanoma; > 100 µM in the assay on HCC-2998 colon; 90.9 µM in the assay on A498 renal; > 100 µM in the assay on UACC-62 melanoma. For the same compound, the GI50 in the assay on M14 melanoma was > 100 µM; in the assay on OVCAR-4 ovarian, 56.2 µM; in the assay with SW-620 colon it was > 100 µM. The TGI with RXF 393 renal, in the assay on KM12 colon, with SK-MEL-2 melanoma, in the assay with HCC-2998 colon, with A498 renal and in the assay on UACC-62 melanoma was > 100 µM in each case. Further, the TGI in the assay on M14 melanoma, in the assay on OVCAR-4 ovarian and in the assay on SW-620 colon was > 100 µM throughout.
`COc1ccc(/C=C2/CCOC2=O)cc1`: the GI50 with RXF 393 renal was > 100 µM; with KM12 colon it was > 100 µM; with NCI-H460 lung it was > 100 µM; in the assay on SK-MEL-2 melanoma, > 100 µM; in the assay with A498 renal, 14.9 µM; in the assay with UACC-62 melanoma it was > 100 µM. Moreover, the GI50 in the assay on M14 melanoma, in the assay on OVCAR-4 ovarian and in the assay with SW-620 colon was > 100 µM throughout. For the same compound, the TGI in the assay on RXF 393 renal, in the assay on KM12 colon, in the assay with NCI-H460 lung, in the assay on SK-MEL-2 melanoma, with A498 renal and in the assay with UACC-62 melanoma was > 100 µM throughout. Besides, the TGI in the assay with M14 melanoma, in the assay with OVCAR-4 ovarian and with SW-620 colon was > 100 µM each time.
Take `O=C1c2ccccc2C(=O)N1C/C=N/NS(=O)(=O)c1ccc(Cl)cc1`: the TGI in the assay with NCI-H460 lung, in the assay on SK-MEL-2 melanoma, with HCC-2998 colon, with A498 renal, in the assay with UACC-62 melanoma and in the assay with M14 melanoma was > 100 µM in each case. The TGI in the assay with OVCAR-4 ovarian and in the assay on SW-620 colon was > 100 µM each time.
